Assay results: PMC8330735 (Journal of Enzyme Inhibition and Medicinal Chemistry, 2021)

How the values were obtained:
[1] = system: ROS production in LPS-activated RAW 264.7 macrophages; assay: ROS production in LPS-activated RAW 264.7 macrophages (DCFH-DA); assay type: cell-based; conditions: LPS 1 µg/mL activated RAW 264.7
Description: HCA7 colorectal cancer cell line was obtained from Sigma. […] Louis, MO) containing 10% heat-inactivated foetal bovine serum (HI-FBS) (Gibco, USA), 100 μg/mL streptomycin (Invitrogen, USA), and […] penicillin (Invitrogen, USA)[40]. HCA7 and RAW 264.7 cells were cultured in Dulbecco's minimal essential media (DMEM, Invitrogen) containing 10% HI-FBS, sodium pyruvate (1 mM), penicillin ([…]), and streptomycin (100 mg/m)[41]^,[42]. […] The cells were cultured, incubated with the different test compounds, and activated with LPS (1 µg/mL) as detailed above. […] IC50 values were calculated from the dose–response curves.

[2] = system: HT29 cells; assay: MTS cell viability assay HT29; assay type: cell-based; conditions: Homo sapiens, HT-29, 48 h, cell line moderately expressing COX-2
Description: Human colorectal cancer cell lines, HCT116 and HT29, and RAW 264.7 macrophages were obtained from ATCC (Manassas, VA). HCA7 colorectal cancer cell line was obtained from Sigma. HT29 and HCT116 cells were cultured in McCoy's 5 A medium (Sigma Aldrich, St. Louis, MO) containing 10% heat-inactivated foetal bovine serum (HI-FBS) (Gibco, USA), 100 μg/mL streptomycin (Invitrogen, USA), and […] penicillin (Invitrogen, USA)[40]. HCA7 and RAW 264.7 cells were cultured in Dulbecco's minimal essential media (DMEM, Invitrogen) containing 10% HI-FBS, sodium pyruvate (1 mM), penicillin ([…]), and streptomycin (100 mg/m)[41]^,[42].
Cells were cultured in 96‐well plates for 48 h and then treated with serum-free media containing different concentrations of the tested compounds (12.5, 25, 50, 100 and 150 µM). After 48 h., MTS reagent (Promega) was added as directed by the manufacturer, and then, the absorbance was measured at 495 nm. The absorbance is proportional to the number of viable cells. IC50 was calculated from the dose-response curves as described previously[45] using GraphPad Prism 8 software (GraphPad Software, San Diego, CA).

[3] = system: stomach ulceration in rats; assay: Gastric acute ulcerogenic activity; conditions: rat, n = 5; for Ulcer Index (UI): UI = UN + US + UP×10^−1
Description: The rats from the previous experiment were fasted for 12 h., followed by the administration of additional doses of the selected compounds or the two references for two consecutive days. Six hrs after the last treatment, the animals were sacrificed, and their stomachs were removed, washed with saline solution (0.9%) and examined for ulceration using a magnifying lens. The ulcer scores were estimated according to the method prescribed by Kulkarni and as detailed in our previous studies[36–38]. The following scores were individually assigned to each lesion: normal coloured stomach, 0; red colouration, 0.5; spot ulcers, 1; haemorrhagic streaks, 1.5; ulcer >3 but <5 mm, 2; and ulcers >5 mm, 3.

IC50 [1]	IC50 ([1]; Mus musculus, RAW264.7)	IC50 [2]	SMILES	Average Ulcer number [3]	Lesion Incidence (%) [3]	Number of rats with ulcer [3]	Ulcer Index (UI) [3]
9.23 ± 1.76 µM	9.22 µM	13.4 ± 0.17 µM	CC(C)Cc1ccc(C(C)C(=O)NN2C(=O)c3ccccc3N(C)C2c2ccc([N+](=O)[O-])cc2)cc1 (stereo not shown) [7c, 2-(4-Isobutylphenyl)-N-(1-methyl-2-(4-nitrophenyl)-4-oxo-1,4-dihydroquinazolin-3(2H)-yl) propenamide]	1	60%	3	8
–	24.4 ± 1.43 µM	> 150 µM	NNC(=O)CSc1nc2ccccc2c(=O)n1NC(=O)Cc1ccccc1 [13b, N-(2-((2-hydrazinyl-2-oxoethyl)thio)-4-oxoquinazolin-3(4H)-yl)-2-phenylacetamide]	0.4	40%	2	4.8
